biological target: T1, C5aR (Homo sapiens, UniProt P21730); assay: chemotaxis assay (C5aR mediated migration); assay type: cell-based; conditions: migration of U937 or neutrophil cells toward C5a (0.03 nM), 1.5 hours at 37° C., read-out: Mig IC50
T1 construct: U937 cells are a monocytic cell line which express C5aR; host or cells: U937 cells (cAMP treated) or isolated neutrophils
T1 sequence (P21730 1-350): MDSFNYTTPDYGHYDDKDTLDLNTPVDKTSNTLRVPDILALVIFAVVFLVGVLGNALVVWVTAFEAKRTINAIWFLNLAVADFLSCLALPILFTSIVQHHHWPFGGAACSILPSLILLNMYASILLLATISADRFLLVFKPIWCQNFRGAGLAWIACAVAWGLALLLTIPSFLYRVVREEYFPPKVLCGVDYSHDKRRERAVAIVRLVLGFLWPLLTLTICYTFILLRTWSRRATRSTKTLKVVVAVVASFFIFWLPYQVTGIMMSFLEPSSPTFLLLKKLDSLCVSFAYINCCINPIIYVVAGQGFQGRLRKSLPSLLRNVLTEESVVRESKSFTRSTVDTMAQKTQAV
Method in brief: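 Migration of cAMP-treated U937 cells (0.5 mM overnight), or of human or murine neutrophils, toward C5a was measured through 5 μm polycarbonate filters in HBSS with 1% FBS. SDF-1α served as a specificity control. After 1.5 h at 37 °C, lower-chamber cells were counted directly or by CyQuant.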

| IC50 [nM] | Compound |
| --- | --- |
| < 5 | CCc1cccc(CC)c1-n1nc2c(c1-c1c(F)cc(C)c3[nH]ccc13)CN(c1ncc(C(C)C)cn1)CC2 [Example 1.139] |
| 5 to 50 | Cc1cccc(C)c1-n1nc2c(c1-c1ncc(Cl)c3[nH]ccc13)CN(c1ncc(C3CC3)cn1)CC2 [Example 1.001] |
| < 5 | CCc1cccc(CC)c1-n1nc2c(c1-c1ccc(F)c3[nH]ccc13)CN(c1ncc(C)cn1)CC2 [Example 1.177] |
| 50 to 500 | CCc1cccc(CC)c1-n1nc2c(c1-c1ccc(F)c3[nH]ncc13)CN(c1ncc(C(F)(F)F)cc1F)CC2 [Example 1.079] |
| < 5 | Cc1cccc(C)c1-n1nc2c(c1-c1c(F)cc(C)c3[nH]ccc13)CN(c1ncc(C(F)(F)F)cc1F)CC2 [Example 1.095] |
| 50 to 500 | Cc1cccc(C)c1-n1nc2c(c1-c1cc(F)c3[nH]ccc3c1)CN(c1ncc(Cl)cc1Cl)CC2 [Example 1.194] |
| < 5 | CCc1cccc(CC)c1-n1nc2c(c1-c1cc(F)c(OC)c3[nH]ncc13)CN(c1ncc(C(F)(F)F)cn1)CC2 [Example 1.056] |
| < 5 | CCc1cccc(CC)c1-n1nc2c(c1-c1c(F)cc(C)c3[nH]ccc13)CN(c1ccc(C(F)(F)F)cn1)CC2 [Example 1.143] |
| < 5 | Cc1cccc(C)c1-n1nc2c(c1-c1ccc(Cl)c3[nH]ccc13)CN(c1ncc(C(F)(F)F)cn1)CC2 [Example 1.060] |
| < 5 | CCc1cccc(CC)c1-n1nc2c(c1-c1c(F)cc(C)c3[nH]ccc13)CN(c1ncc(C(C)C)cc1F)CC2 [Example 1.145] |
| < 5 | CCc1cccc(CC)c1-n1nc2c(c1-c1c(F)cc(Cl)c3[nH]ccc13)CN(c1ncc(OC(C)C)cn1)CC2 [Example 1.048] |
| < 5 | CCc1cccc(CC)c1-n1nc2c(c1-c1ccc(F)c3[nH]ccc13)CN(c1ncc(C(C)C)cc1F)CC2 [Example 1.180] |
| 5 to 50 | CCc1cccc(CC)c1-n1nc2c(c1-c1ncc(OC)c3[nH]ccc13)CN(c1ncc(C(F)(F)F)cn1)CC2 [Example 1.013] |
| 5 to 50 | Cc1cccc(C)c1-n1nc2c(c1-c1c(F)cc(Cl)c3[nH]ccc13)CN(c1ncc(C(F)(F)F)cn1)CC2 [Example 1.122] |
| 5 to 50 | Cc1cccc(OCC(C)C)c1-n1nc2c(c1-c1cccc3[nH]ccc13)CN(Cc1cc(Cl)ccc1C(F)(F)F)CC2 [Example 1.205] |
| < 5 | CCc1cccc(CC)c1-n1nc2c(c1-c1c(F)cc(Cl)c3[nH]ccc13)CN(c1ncc(C(F)(F)F)cc1F)CC2 [Example 1.144] |
| < 5 | CCc1cccc(CC)c1-n1nc2c(c1-c1ccc(C)c3[nH]ccc13)CN(c1ccc(C(C)C)cn1)CC2 [Example 1.127] |
| 5 to 50 | CCc1cccc(CC)c1-n1nc2c(c1-c1cc(F)c3[nH]ccc3c1)CN(c1ncc(C(F)(F)F)cc1F)CC2 [Example 1.083] |
| 5 to 50 | CCc1cccc(CC)c1-n1nc2c(c1-c1ccc(OC)c3[nH]ccc13)CN(c1ncc(C(F)(F)F)cn1)CC2 [Example 1.087] |
| < 5 | CCc1cccc(CC)c1-n1nc2c(c1-c1c(F)cc(Cl)c3[nH]ccc13)CN(c1ncc(C(C)C)cc1F)CC2 [Example 1.125] |

| IC50 [nM] | Compound |
| --- | --- |
| < 5 | CCc1cccc(CC)c1-n1nc2c(c1-c1ccc(C)c3[nH]ccc13)CN(c1ncc(C(F)(F)F)cc1F)CC2 [Example 1.181] |
| 5 to 50 | Cc1cccc(OCC(C)C)c1-n1nc2c(c1-c1ccc3[nH]ccc3c1)CN(Cc1cc(Cl)ccc1C(F)(F)F)CC2 [Example 1.203] |
| 5 to 50 | CCc1cccc(CC)c1-n1nc2c(c1-c1ccc(Cl)c3[nH]ccc13)CN(c1cnc(C3CC3)cn1)CC2 [Example 1.067] |
| 5 to 50 | CCc1cccc(CC)c1-n1nc2c(c1-c1nccc3[nH]ccc13)CN(c1ncc(C(F)(F)F)cn1)CC2 [Example 1.031] |
| 50 to 500 | CCc1cccc(CC)c1-n1nc2c(c1-c1cc3cc[nH]c3cn1)CN(c1ncc(C(F)(F)F)cn1)CC2 [Example 1.012] |
| 5 to 50 | COc1cnc(N2CCc3nn(-c4c(C)cccc4C)c(-c4ccc(C)c5[nH]ccc45)c3C2)nc1 [Example 1.114] |
| < 5 | Cc1cccc(OCC(C)C)c1-n1nc2c(c1-c1cc(F)c3[nH]ccc3c1)CN(c1ncc(C(F)(F)F)cc1F)CC2 [Example 1.218] |
| 5 to 50 | Cc1cccc(OCC(C)C)c1-n1nc2c(c1-c1ccc3[nH]ccc3c1)CN(c1nc(Cl)ns1)CC2 [Example 1.214] |
| 5 to 50 | Cc1cccc(OCC(C)C)c1-n1nc2c(c1-c1ccc3[nH]ccc3c1)CN(C(C)CC(F)(F)F)CC2 (centres unmarked) [Example 1.206] |
| < 5 | CCc1cccc(CC)c1-n1nc2c(c1-c1ncc(C)c3[nH]ccc13)CN(c1ncc(C(F)(F)F)cn1)CC2 [Example 1.020] |
| > 500 | Cc1nc2cc(-c3c4c(nn3-c3c(C)cccc3OCC(C)C)CCN(c3ncc(C(F)(F)F)cc3F)C4)ccc2[nH]1 [Example 1.224] |
| 5 to 50 | Cc1cccc(C)c1-n1nc2c(c1-c1ccc(C)c3[nH]ccc13)CN(c1ncc(C(C)C)cn1)CC2 [Example 1.131] |
| < 5 | Cc1cccc(C)c1-n1nc2c(c1-c1ccc(Cl)c3[nH]ccc13)CN(c1ncc(C(C)C)cn1)CC2 [Example 1.151] |
| 5 to 50 | CCc1cccc(CC)c1-n1nc2c(c1-c1ccc3[nH]ccc3c1)CN(C1CCCC1)CC2 [Example 1.209] |
| < 5 | CCc1cccc(CC)c1-n1nc2c(c1-c1cc(F)c(OC)c3[nH]cnc13)CN(c1ncc(C(F)(F)F)cn1)CC2 [Example 1.036] |
| < 5 | CCc1cccc(CC)c1-n1nc2c(c1-c1ccc(Cl)c3[nH]ccc13)CN(c1ncc(C3CC3)cc1F)CC2 [Example 1.071] |
| < 5 | CCc1cccc(CC)c1-n1nc2c(c1-c1ccc(Cl)c3[nH]cnc13)CN(c1ncc(C(F)(F)F)cn1)CC2 [Example 1.035] |
| < 5 | CCc1cccc(CC)c1-n1nc2c(c1-c1ccc(Cl)c3[nH]ccc13)CN(c1ncc(Cl)cn1)CC2 [Example 1.160] |
| 50 to 500 | Cc1cccc(C)c1-n1nc2c(c1-c1ccc(F)c3[nH]ccc13)CN(c1ncc(C(F)(F)F)cc1F)CC2 [Example 1.178] |
| < 5 | CCc1cccc(CC)c1-n1nc2c(c1-c1cc(F)c(OC)c3[nH]ncc13)CN(c1ncc(C(F)(F)F)cc1F)CC2 [Example 1.051] |

| IC50 [nM] | Compound |
| --- | --- |
| < 5 | CCc1cccc(CC)c1-n1nc2c(c1-c1cc(F)c(OC)c3[nH]cc(F)c13)CN(c1ncc(C(F)(F)F)cn1)CC2 [Example 1.023] |
| < 5 | CCc1cccc(CC)c1-n1nc2c(c1-c1cc(F)c(Cl)c3[nH]ccc13)CN(c1ncc(C(F)(F)F)cn1)CC2 [Example 1.084] |
| 5 to 50 | CCc1cccc(CC)c1-n1nc2c(c1-c1ccc3[nH]cc(Cl)c3c1)CN(Cc1cc(F)ccc1Cl)CC2 [Example 1.220] |
| < 5 | CCc1cccc(CC)c1-n1nc2c(c1-c1ccc(Cl)c3[nH]ccc13)CN(c1ccc(C(F)(F)F)cn1)CC2 [Example 1.163] |
| 50 to 500 | Cc1cccc(OCC(C)C)c1-n1nc2c(c1-c1ccnc3[nH]ccc13)CN(c1ncc(C(F)(F)F)cc1F)CC2 [Example 1.217] |
| < 5 | CCc1cccc(CC)c1-n1nc2c(c1-c1c(F)cc(CO)c3[nH]ccc13)CN(c1ccc(C(F)(F)F)cn1)CC2 [Example 1.100] |
| < 5 | CCc1cccc(CC)c1-n1nc2c(c1-c1cc(F)c(OC)c3[nH]ccc13)CN(c1ncc(C(F)(F)F)cc1F)CC2 [Example 1.061] |
| 50 to 500 | CCc1cccc(CC)c1-n1nc2c(c1-c1cc(Cl)cc3[nH]cnc13)CN(c1ncc(C(F)(F)F)cn1)CC2 [Example 1.025] |
| 5 to 50 | Cc1cccc(C)c1-n1nc2c(c1-c1ccc(C)c3[nH]ccc13)CN(c1ccc(C(F)(F)F)cn1)CC2 [Example 1.130] |
| < 5 | CCc1cccc(CC)c1-n1nc2c(c1-c1ccc(Cl)c3[nH]ccc13)CN(c1ncc(C(C)C)cn1)CC2 [Example 1.167] |
| < 5 | CCc1cccc(CC)c1-n1nc2c(c1-c1ccc(Cl)c3[nH]cnc13)CN(c1ncc(C(F)(F)F)cn1)CC2 [Example 1.069] |
| < 5 | CCOc1c(F)cc(-c2c3c(nn2-c2c(CC)cccc2CC)CCN(c2ncc(C(F)(F)F)cn2)C3)c2cc[nH]c12 [Example 1.024] |
| < 5 | Cc1cccc(OCC(C)C)c1-n1nc2c(c1-c1ccc3[nH]ccc3c1)CN(C(C)(C)c1ccccc1)CC2 [Example 1.199] |
| < 5 | CCc1cccc(CC)c1-n1nc2c(c1-c1cc(F)c(CO)c3[nH]ccc13)CN(c1ncc(C(F)(F)F)cc1F)CC2 [Example 1.078] |
| 50 to 500 | CCc1cccc(CC)c1-n1nc2c(c1-c1ccc(C(C)(C)O)c3[nH]ccc13)CN(c1ncc(C(F)(F)F)cc1F)CC2 [Example 1.165] |
| < 5 | CCc1cccc(CC)c1-n1nc2c(c1-c1ccc(Cl)c3[nH]ccc13)CN(c1nccc(C(F)(F)F)n1)CC2 [Example 1.138] |
| < 5 | CCc1cccc(CC)c1-n1nc2c(c1-c1ccc(Cl)c3[nH]ncc13)CN(c1ncc(C3CC3)cn1)CC2 [Example 1.065] |
| < 5 | CCc1cccc(CC)c1-n1nc2c(c1-c1ccc(F)c3[nH]ccc13)CN(c1ncc(Cl)cc1Cl)CC2 [Example 1.187] |
| 5 to 50 | CCc1cccc(CC)c1-n1nc2c(c1-c1cc(F)c(CO)c3[nH]ccc13)CN(c1ncc(C(C)(C)O)cn1)CC2 [Example 1.068] |

— patent US11384079B2, “6-5 fused rings as C5a inhibitors” (CHEMOCENTRYX, INC., priority 2017, dated 2022)
